# Results reported in patent publication US8425908B2, “Treatment with anti-ErbB2 antibodies” (Genentech, Inc., priority 1997, dated 2013).
# Test system: ErbB2-overexpressing metastatic breast cancer
# Assay: Randomized clinical study of chemotherapy with or without HERCEPTIN in patients with metastatic breast cancer
# Assay type: in vivo, human
# From the text: Eligibility Criteria Patients had to fulfill all of the following criteria to be eligible for study admission: • Metastatic breast cancer • Overexpression of the ErbB2 (HER2) oncogene (2+ to 3+ as determined by immunohistochemistry or fluorescence in situ hybridization (FISH). [Tumor expression of ErbB2 can be determined by immunohistochemical analysis, as previously described (Slamon et al., [1987] and [1989], supra), of a set of thin sections prepared from the patient's paraffin-archived tumor blocks. The primary detecting antibody used is murine 4D5 MAb, which has the same CDRs as the humanized antibody used for the treatment.
# Measurable disease was defined as any mass reproducibly measurable in two perpendicular diameters by physical examination, X-ray (plain films), computerized tomography (CT), magnetic resonance imaging (MRI), ultrasound, or photographs.
# Osteoblastic metastases, pleural effusions, or ascites were not considered to be measurable. Measurable lesions must be at least 1 cm in greatest dimension. Enumeration of evaluable sites of metastatic disease and number of lesions in an evaluable site (e.g. lung) had to be recorded on the appropriate Case Report Form (CRF). If a large number of pulmonary or hepatic lesions were present, the six largest lesions per site were followed. • The ability to understand and willingness to sign a written informed consent form • Women≧18 years • Suitable candidates for receiving concomitant cytotoxic chemotherapy as evidenced by screening laboratory assessments of hematologic, renal, hepatic, and metabolic functions.
# Exclusion Criteria Patients with any of the following were excluded from study entry: • Prior cytotoxic chemotherapy for metastatic breast cancer Patients may have received prior hormonal therapy (e.g. tamoxifen) for metastatic disease or cytotoxic therapy in the adjuvant setting. • Concomitant malignancy that has not been curatively treated • A performance status of <60% on the Karnofsky scale • Pregnant or nursing women; women of childbearing potential, unless using effective contraception as determined by the investigator • Bilateral breast cancer (either both primary tumors must have 2+ to 3+ HER2 overexpression, or the metastatic site must have 2+ to 3+ HER2 overexpression) • Use of investigational or unlicensed agents within 30 days prior to study entry • Clinically unstable or untreated metastases to the brain (e.g. requiring radiation therapy)
# Half the patients (stratified by chemotherapy) were randomized to additionally receive the HERCEPTIN® antibody (see below).
# Beginning on day 7, patients received weekly administration of 2 mg/kg antibody (i.v.) over a 90-minute period. […]
# [1] = median follow-up of 10.5 months
smiles,measurement,setting,value
"CC(=O)O[C@H]1C(=O)[C@@]2(C)[C@H]([C@H](OC(=O)c3ccccc3)[C@]3(O)C[C@H](OC(=O)[C@H](O)[C@@H](NC(=O)c4ccccc4)c4ccccc4)C(C)=C1C3(C)C)[C@]1(OC(C)=O)CO[C@@H]1C[C@@H]2O [T, paclitaxel]","syndrome of myocardial dysfunction, Grade 3/4",,0%
same,"AE (%), overall severe adverse events",[1],59%
same,"RR (%), response rates",[1],25.0%
same,"TTP (months), time to disease progression",[1],4.2 months
